One experiment has as its target T1, R282E-PepT1 (Oryctolagus cuniculus, UniProt P36836, R282E).
T1 construct: expressed in transfected cells; host or cells: Xenopus laevis oocytes injected with cRNA
T1 sequence (P36836 1-707 R282E): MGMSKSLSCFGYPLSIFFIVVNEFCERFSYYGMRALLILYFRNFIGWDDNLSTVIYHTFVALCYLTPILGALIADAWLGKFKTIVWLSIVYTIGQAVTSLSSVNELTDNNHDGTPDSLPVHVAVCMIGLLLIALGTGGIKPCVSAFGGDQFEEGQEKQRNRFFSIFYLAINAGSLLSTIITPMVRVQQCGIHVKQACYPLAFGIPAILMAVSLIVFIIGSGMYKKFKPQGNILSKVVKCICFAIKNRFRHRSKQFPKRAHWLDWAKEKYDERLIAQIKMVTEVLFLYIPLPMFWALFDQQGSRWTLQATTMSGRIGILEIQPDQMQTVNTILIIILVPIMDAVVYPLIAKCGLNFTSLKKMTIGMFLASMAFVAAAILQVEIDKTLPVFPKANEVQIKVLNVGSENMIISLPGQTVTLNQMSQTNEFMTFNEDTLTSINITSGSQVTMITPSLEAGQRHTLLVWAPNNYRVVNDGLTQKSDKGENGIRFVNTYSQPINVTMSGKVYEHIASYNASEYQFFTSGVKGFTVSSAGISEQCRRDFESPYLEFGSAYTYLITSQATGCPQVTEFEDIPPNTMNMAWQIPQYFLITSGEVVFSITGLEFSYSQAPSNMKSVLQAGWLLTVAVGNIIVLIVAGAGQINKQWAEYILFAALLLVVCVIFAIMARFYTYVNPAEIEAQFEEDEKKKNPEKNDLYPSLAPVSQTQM
Description: Inhibition of [3H]-D-Phe-L-Gln uptake into Xenopus oocytes expressing R282E-PepT1 (competition, Ki). Conditions: pHout 5.5, 0.4 μM [3H]-D-Phe-L-Gln. The experiment is classed as cell-based, rabbit. How it is done: Zero-trans uptake of [^3H]-D-Phe-L-Gln (17.4 Ci/mmole, custom synthesised, Cambridge Research Biochemicals, Stockton-on-Tees, UK) was performed as previously described ([Meredith, 2004]). Briefly, 5 oocytes were incubated in 100 μl of uptake medium (95 mM NaCl, 2 mM KCl, 1 mM CaCl2, 0.42 mM MgCl2, 10 mM Tris/Hepes pH 7.4 or Tris/Mes pH 5.5) with tracer (0.4 μM) [^3H]-D-Phe-L-Gln. After incubation, the oocytes were washed sequentially five times in 1 ml of ice-cold 120 mM NaCl solution, lysed individually with 100 μl 2% (w/v) SDS and liquid scintillation counted. As a control non-injected oocytes were also incubated in uptake medium with [^3H]-D-Phe-L-Gln as above.
The affinity of wild-type and mutant PepT1 were assessed by competition studies with 0.4 μM [^3H]-D-Phe-L-Gln and Gly-L-Gln present in the uptake medium in concentrations from 0 to 2 mM using the protocol above, and the Ki calculated using the method of [Deves and Boyd (1989)].

For a further experiment, the target named is T2, R282D-PepT1 (Oryctolagus cuniculus, UniProt P36836, R282D).
T2 construct: expressed in transfected cells; host or cells: Xenopus laevis oocytes injected with cRNA
T2 sequence (P36836 1-707 R282D): T1 sequence (P36836 1-707 R282E) with E282D
Briefly: Apparent charge:peptide stoichiometry (two-electrode voltage clamp current / radiolabelled uptake), R282D-PepT1. The class given is cell-based, rabbit. Conditions: R282D-PepT1, pHout 5.5, resting membrane potential. The protocol:
Measurements of membrane potential were made by impaling oocytes with a single glass microelectrode (Intra 767 amplifier, WPI, Stevenage, Hertfordshire, UK) perfused in uptake medium (as above) with or without 0.4 μM D-Phe-L-Gln (synthesised in house), 0.6 mM Gly-L-Gln (Sigma, Poole, UK) or 10 mM 4-aminobenzoic acid (4-AMBA, Sigma). Two-electrode voltage clamp (TEVC) was performed by placing oocytes in a 0.1 ml recording chamber and perfusing with uptake solution (pH 5.5 or 7.4) at a rate of 15 ml/min. Oocytes were impaled by two agarose-cushioned microelectrodes filled with 3 M KCl (0.5–2.0 MΩ) and voltage-clamped at −60 mV using a Geneclamp 500B amplifier and PCLAMP 8.1 software (Axon Instruments, CA, USA). The holding potential was stepped from −60 mV over the range of −150 to +50 mV in 10 mV steps, each pulse lasting 100 ms, and returning to −60 mV in between test voltage pulses. Typically traces were filtered at 1 kHz during recording and digitized at 0.5–5 kHz using the DigiData 1200 interface (Axon Instruments, CA, USA). All experiments were carried out at room temperature.
In order to calculate the apparent charge:substrate stoichiometry, the peptide induced current that was measured by two-electrode voltage clamp at the oocyte resting membrane potential was divided by the radiolabelled dipeptide uptake in oocytes from the same preparation. […]

SMILES strings stand for the structures. Residue numbers refer to the chain shown, from its start. Where a SMILES comes first, the peptide text is derived from it.

Regarding `NCC(=O)N[C@@H](CCC(N)=O)C(=O)O` [Gly-L-Gln] (H-Gly-Gln-OH), at R282E-PepT1, the affinity, expressed as Ki, was 350 ± 170 µM. In the case of `NC(=O)CC[C@H](NC(=O)[C@H](N)Cc1ccccc1)C(=O)O` [D-Phe-L-Gln], the “apparent stoichiometry (charge:peptide), normalised to wild-type 1:1” value at R282D-PepT1 stood at 5.

The record behind these values is PMC2267855, “Site-directed mutagenesis of Arginine282 suggests how protons and peptides are co-transported by rabbit PepT1” (The International Journal of Biochemistry & Cell Biology, 2008).
